Measurements as given in ChEMBL document CHEMBL1795312, “Insights into the structural requirements of farnesyltransferase inhibitors as potential anti-tumor agents based on 3D-QSAR CoMFA and CoMSIA models” (Eur J Med Chem, 2008).

Assay: Inhibition of farnesyltransferase

| SMILES | pIC50 |
| --- | --- |
| Cc1ccccc1-c1cc(C(OCc2nc(-c3ccc(Cl)cc3)cs2)c2cncn2C)ccc1C#N (stereo unspecified) | 7.53 |
| Cc1ccccc1-c1cc(C(OCc2ccc(OC(F)(F)F)cc2)c2cncn2C)ccc1C#N (stereo unspecified) | 7.79 |
| Cc1ccccc1-c1cc(C(OCc2ccc(C(C)C)cc2)c2cncn2C)ccc1C#N (stereo unspecified) | 7.29 |
| Cc1ccccc1-c1cc(C(OCc2cccc(I)c2)c2cncn2C)ccc1C#N (stereo unspecified) | 7.69 |
| Cc1ccc(COC(c2ccc(C#N)c(-c3ccccc3C)c2)c2cncn2C)cc1 (stereo unspecified) | 7.26 |
| Cc1ccccc1-c1cc(C(OCc2cccc(OC(F)(F)F)c2)c2cncn2C)ccc1C#N (stereo unspecified) | 8.08 |
| Cc1ccccc1-c1cc(C(OCc2ccc(C(F)(F)F)cc2)c2cncn2C)ccc1C#N (stereo unspecified) | 7.92 |
| Cc1ccccc1-c1cc(C(OCc2ccc(C(C)(C)C)cc2)c2cncn2C)ccc1C#N (stereo unspecified) | 7.06 |
| COC(=O)c1cccc(COC(c2ccc(C#N)c(-c3ccccc3C)c2)c2cncn2C)c1 (stereo unspecified) | 7.21 |
| Cc1cccc(COC(c2ccc(C#N)c(-c3ccccc3C)c2)c2cncn2C)c1 (stereo unspecified) | 7.21 |
| Cc1ccccc1-c1cc(C(OCc2cccc(Cl)c2)c2cncn2C)ccc1C#N (stereo unspecified) | 7.72 |
| Cc1ccccc1-c1cc(C(OCc2c(Cl)cccc2Cl)c2cncn2C)ccc1C#N (stereo unspecified) | 7.09 |
| Cc1ccccc1-c1cc(C(OCc2ccc(Br)cc2)c2cncn2C)ccc1C#N (stereo unspecified) | 7.92 |
| Cc1ccccc1-c1cc(C(OCc2ccc(I)cc2)c2cncn2C)ccc1C#N (stereo unspecified) | 7.88 |
| Cc1ccccc1-c1cc(C(OCc2ccc(-c3ccccc3)cc2)c2cncn2C)ccc1C#N (stereo unspecified) | 7.88 |
| Cc1ccccc1-c1cc(C(OCc2ccc([N+](=O)[O-])cc2)c2cncn2C)ccc1C#N (stereo unspecified) | 8.12 |

| SMILES | pIC50 |
| --- | --- |
| Cc1ccccc1-c1cc(C(OCc2cccc3cccnc23)c2cncn2C)ccc1C#N (stereo unspecified) | 7.22 |
| Cc1ccccc1-c1cc(C(OCc2ccccc2)c2cncn2C)ccc1C#N (stereo unspecified) | 7.07 |
| COc1ccc(COC(c2ccc(C#N)c(-c3ccccc3C)c2)c2cncn2C)cc1 (stereo unspecified) | 7.22 |
| Cc1ccccc1-c1cc(C(OCc2ccccc2C#N)c2cncn2C)ccc1C#N (stereo unspecified) | 7.2 |
| Cc1ccccc1-c1cc(C(OCc2ccccc2Cl)c2cncn2C)ccc1C#N (stereo unspecified) | 7.31 |
| Cc1ccccc1COC(c1ccc(C#N)c(-c2ccccc2C)c1)c1cncn1C (stereo unspecified) | 7.26 |
| Cc1ccccc1-c1cc(C(OCc2cnc(Cl)c(Cl)c2)c2cncn2C)ccc1C#N (stereo unspecified) | 7.82 |
| Cc1ccccc1-c1cc(C(OCc2cccc(Br)c2)c2cncn2C)ccc1C#N (stereo unspecified) | 7.88 |
| Cc1ccccc1-c1cc(C(OCc2cccc(F)c2)c2cncn2C)ccc1C#N (stereo unspecified) | 7.42 |
| Cc1ccccc1-c1cc(C(OCc2ccc(F)cc2)c2cncn2C)ccc1C#N (stereo unspecified) | 7.49 |
| Cc1ccccc1-c1cc(C(OCc2cc(Cl)cc(Cl)c2)c2cncn2C)ccc1C#N (stereo unspecified) | 7.72 |
| Cc1ccccc1-c1cc(C(OCc2cc(Cl)nc(Cl)c2)c2cncn2C)ccc1C#N (stereo unspecified) | 7.88 |
| Cc1ccccc1-c1cc(C(OCc2ccccc2[N+](=O)[O-])c2cncn2C)ccc1C#N (stereo unspecified) | 7.48 |
| Cc1ccccc1-c1cc(C(OCc2ccc(Cl)c(Cl)c2)c2cncn2C)ccc1C#N (stereo unspecified) | 7.56 |
| Cc1ccccc1-c1cc(C(OCc2ccccc2F)c2cncn2C)ccc1C#N (stereo unspecified) | 7.15 |

Results, then the molecule that gave them:

| pIC50 | SMILES |
| --- | --- |
| 6.69 | N#Cc1ccc(Cn2cncc2CN[C@@H]2CCN(c3ccccc3)C2=O)cc1 |
| 6.92 | N#Cc1ccc(Cn2cncc2CCN[C@@H]2CCN(c3ccccc3)C2=O)cc1 |
| 6.61 | N#Cc1ccc(Cn2cncc2CCN[C@H]2CCN(CCc3ccccc3)C2=O)cc1 |
| 7.37 | N#Cc1ccc(Cn2cncc2CNC2CCN(C(=O)c3cncc(Br)c3)C2=O)cc1 (stereo unspecified) |
| 8.82 | N#Cc1ccc(Cn2cncc2CNC2CCN(c3ccccc3Cl)C2=O)cc1 (stereo unspecified) |
| 8.08 | N#Cc1ccc(Cn2cncc2CNC2CCN(c3cccc(Cl)c3)C2=O)cc1 (stereo unspecified) |
| 7.68 | N#Cc1ccc(Cn2cncc2CNC2CCN(c3ccc(Cl)cc3)C2=O)cc1 (stereo unspecified) |
| 8.28 | N#Cc1ccc(Cn2cncc2CNC2CCN(Cc3ccccc3Cl)C2=O)cc1 (stereo unspecified) |
| 7.6 | N#Cc1ccc(Cn2cncc2CNC2CCN(Cc3ccc(Cl)cc3)C2=O)cc1 (stereo unspecified) |
| 7.07 | N#Cc1ccc(Cn2cncc2CNC2CCN(c3cccnc3)C2=O)cc1 (stereo unspecified) |
| 7.37 | N#Cc1ccc(Cn2cncc2CNC2CCN(c3ccncc3)C2=O)cc1 (stereo unspecified) |
| 6.96 | N#Cc1ccc(Cn2cncc2CNC2CCN(C(=O)c3ccccc3)C2=O)cc1 (stereo unspecified) |
| 7.96 | N#Cc1ccc(Cn2cncc2CNC2CCN(C(=O)c3cccc4ccccc34)C2=O)cc1 (stereo unspecified) |
| 7.19 | N#Cc1ccc(Cn2cncc2CNC2CCN(C(=O)c3ccccc3Cl)C2=O)cc1 (stereo unspecified) |
| 7.57 | N#Cc1ccc(Cn2cncc2CNC2CCN(C(=O)c3cccc(Cl)c3)C2=O)cc1 (stereo unspecified) |
| 7.05 | N#Cc1ccc(Cn2cncc2CNC2CCN(C(=O)c3ccc(Cl)cc3)C2=O)cc1 (stereo unspecified) |
| 5.7 | N#Cc1ccc(Cn2cncc2CNC2CCN(C(=O)c3cccnc3)C2=O)cc1 (stereo unspecified) |
| 6.01 | N#Cc1ccc(Cn2cncc2CNC2CCN(C(=O)c3cccnc3N)C2=O)cc1 (stereo unspecified) |
| 5.17 | N#Cc1ccc(Cn2cncc2CNC2CCN(C(=O)c3cccnc3O)C2=O)cc1 (stereo unspecified) |
| 6.82 | COc1ncccc1C(=O)N1CCC(NCc2cncn2Cc2ccc(C#N)cc2)C1=O (stereo unspecified) |

| pIC50 | SMILES |
| --- | --- |
| 5.54 | N#Cc1ccc(Cn2cncc2CNC2CCN(C(=O)c3cccnc3S)C2=O)cc1 (stereo unspecified) |
| 7.08 | CSc1ncccc1C(=O)N1CCC(NCc2cncn2Cc2ccc(C#N)cc2)C1=O (stereo unspecified) |
| 8.32 | CCSc1ncccc1C(=O)N1CCC(NCc2cncn2Cc2ccc(C#N)cc2)C1=O (stereo unspecified) |
| 7.23 | CCCN(Cc1cncn1Cc1ccc(C#N)cc1)C1CCN(Cc2ccccc2)C1=O (stereo unspecified) |
| 7.17 | N#Cc1ccc(Cn2cncc2CN(Cc2ccccc2)C2CCN(Cc3ccccc3)C2=O)cc1 (stereo unspecified) |
| 7.29 | N#Cc1ccc(Cn2cncc2CN(CCc2ccccc2)C2CCN(Cc3ccccc3)C2=O)cc1 (stereo unspecified) |
| 7.38 | N#Cc1ccc(Cn2cncc2CN(CCCCc2ccccc2)C2CCN(Cc3ccccc3)C2=O)cc1 (stereo unspecified) |
| 7.28 | N#Cc1ccc(Cn2cncc2CN(c2ccccn2)C2CCN(Cc3ccccc3)C2=O)cc1 (stereo unspecified) |
| 8.89 | CC(C)(C)OC(=O)NCCCN(Cc1cncn1Cc1ccc(C#N)cc1)C1CCN(Cc2cccc(Cl)c2)C1=O (stereo unspecified) |
| 8.12 | N#Cc1ccc(Cn2cncc2CN(CCCN)C2CCN(Cc3cccc(Cl)c3)C2=O)cc1 (stereo unspecified) |
| 7.76 | Cc1ccccc1-c1cc(C(OCc2cccc3ccccc23)c2cncn2C)ccc1C#N (stereo unspecified) |
| 8.39 | Cc1ccccc1-c1cc(C(OCc2ccc(C#N)cc2)c2cncn2C)ccc1C#N (stereo unspecified) |
| 7.95 | Cc1ccccc1-c1cc(C(OCc2ccc(Cl)cc2)c2cncn2C)ccc1C#N (stereo unspecified) |
| 6.42 | N#Cc1ccc(Cn2cncc2CCN[C@@H]2CCN(CCc3ccccc3)C2=O)cc1 |
| 9.09 | Cn1cncc1C(OCc1ccc(C#N)cc1)c1ccc(C#N)c(-c2ccccc2C(F)(F)F)c1 (stereo unspecified) |
| 6.55 | N#Cc1ccc(Cn2cncc2CCN[C@H]2CCN(c3ccccc3)C2=O)cc1 |
| 6.63 | N#Cc1ccc(Cn2cncc2CN[C@H]2CCN(CCc3ccccc3)C2=O)cc1 |
| 7.13 | N#Cc1ccc(Cn2cncc2CN[C@H]2CCN(c3ccccc3)C2=O)cc1 |
| 6.6 | N#Cc1ccc(Cn2cncc2CCN[C@@H]2CCN(Cc3ccccc3)C2=O)cc1 |
| 6.56 | N#Cc1ccc(Cn2cncc2CCN[C@H]2CCN(Cc3ccccc3)C2=O)cc1 |
